Assay results from patent publication US20240043435A1, “TYK-2 INHIBITOR” (BEIGENE, LTD., priority 2020, published 2024).
Read-outs that look alike come from different tables or passages of the source.

Legend:
pSTAT5/GM-CSF = pSTAT5/GM-CSF cellular assay (JAK2 selectivity); format: cell-based; conditions: for Selectivity fold (TYK2/JAK2): pSTAT5/GM-CSF IC50 over pSTAT4/IL-12 IC50
[1] = system: JAK2, TYK2/p-STAT4 (Tyr693) activated by IL-12 in NK-92 cell line; experiment: IL-12-JAK2, TYK2/p-STAT4 (Tyr693) inhibition IC50 cellular assay; format: cell-based; conditions: for Selectivity fold (TYK2/JAK2): pSTAT5/GM-CSF IC50 vs pSTAT4/IL-12 IC50; for IC50: read-out: pSTAT4/IL-12 IC50
Method in brief: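 p-STAT4 (Tyr693) in lysates was measured by AlphaLISA SureFire Ultra after a 30 min IL-12 challenge (40 ng/ml final) at 37° C. Overnight-starved, IL-2-free NK-92 cells had been pretreated 1 h with compound at 10000 to 0.61 nM (4-fold, 8 points). IC50 values came from four-parameter logistic fitting.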

[2] = biological target: T1, TYK2-JH2 (aa 575-869, in-house) protein (Homo sapiens, UniProt P29597); experiment: TYK2-JH2 biochemical assay (HTRF probe displacement); format: binding; conditions: Biochemical assay; read-out: TYK2-JH2 IC50
T1 construct: TYK2-JH2 (aa 575-869, in-house) protein; made in house
T1 sequence (P29597 575-869): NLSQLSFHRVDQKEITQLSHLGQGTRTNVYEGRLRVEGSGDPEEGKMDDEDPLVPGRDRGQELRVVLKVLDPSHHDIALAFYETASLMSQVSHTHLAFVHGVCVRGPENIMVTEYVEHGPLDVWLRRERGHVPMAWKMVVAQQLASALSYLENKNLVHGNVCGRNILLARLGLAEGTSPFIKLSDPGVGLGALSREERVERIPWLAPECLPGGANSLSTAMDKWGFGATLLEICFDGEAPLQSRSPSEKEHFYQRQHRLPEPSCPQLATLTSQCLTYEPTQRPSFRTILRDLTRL
Method in brief: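 HTRF probe-displacement format: compound dilutions (10 points, 5-fold, from 500 uM in DMSO at 500×) were combined with 0.2 nM TYK2-JH2 protein for 0.5 h at room temperature in HEPES pH 7.5 buffer with MgCl2, BSA, DTT and Brij-35. Percent inhibition came from the 615/665 nm fluorescence ratio, fitted to a four-parameter logistic for IC50.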

CC(=O)Nc1cc(Nc2cc(C#N)cc(S(C)(=O)=O)c2)c(-c2ccc(C(C)(C)O)cn2)cn1 [Example H20, N-(4′-((3-cyano-5-(methylsulfonyl)phenyl)amino)-5-(2-hydroxypropan-2-yl)-[2,3′-bipyridin]-6′-yl)acetamide]
IC50 (pSTAT5/GM-CSF): > 10 µM | Selectivity fold (TYK2/JAK2) ([1]; Cellular assay): >284 fold | IC50 ([1]; NK92, Cellular assay): 35.2 nM | IC50 [2]: 0.046 nM

CCn1ccc(-c2cnc(NC(C)=O)cc2Nc2cc(OCCO)cc(S(C)(=O)=O)c2)n1 [Example M15, N-(5-(1-ethyl-1H-pyrazol-3-yl)-4-((3-(2-hydroxyethoxy)-5-(methylsulfonyl)phenyl)amino)pyridin-2-yl)acetamide]
IC50 (pSTAT5/GM-CSF): > 10 µM | Selectivity fold (TYK2/JAK2) (pSTAT5/GM-CSF): >977 fold | IC50 ([1]; NK92, Cellular assay): 10.2 nM | IC50 [2]: 0.048 nM

COCCOc1ccc(-c2cnc(NC(C)=O)cc2Nc2cccc(S(C)(=O)=O)n2)nc1 [Example D1, N-(5-(2-methoxyethoxy)-4′-((6-(methylsulfonyl)pyridin-2-yl)amino)-[2,3′-bipyridin]-6′-yl)acetamide]
IC50 (pSTAT5/GM-CSF): > 10 µM | Selectivity fold (TYK2/JAK2) ([1]; Cellular assay): >39840 fold | IC50 ([1]; NK92, Cellular assay): 0.251 nM | IC50 [2]: 0.047 nM

CC(=O)Nc1cc(Nc2cc(OC(C)C)cc(S(C)(=O)=O)n2)c(-c2ccc3c(n2)OCCO3)cn1 [Example Q1, N-(5-(2,3-dihydro-[1,4]dioxino[2,3-b]pyridin-6-yl)-4-((4-isopropoxy-6-(methylsulfonyl)pyridine-2-yl)amino)pyridin-2-yl)acetamide]
IC50 (pSTAT5/GM-CSF): > 10 µM | Selectivity fold (TYK2/JAK2) (pSTAT5/GM-CSF): >5681 fold | IC50 ([1]; NK92, Cellular assay): 1.76 nM | IC50 [2]: 0.023 nM

COCc1ccc(-c2cnc(NC(C)=O)cc2Nc2cc(OC(C)C)cc(S(C)(=O)=O)n2)nc1 [Example E4, N-(4′-((4-isopropoxy-6-(methylsulfonyl)pyridin-2-yl)amino)-5-(methoxymethyl)-[2,3′-bipyridin]-6′-yl)acetamide]
IC50 (pSTAT5/GM-CSF): > 10 µM | Selectivity fold (TYK2/JAK2) ([1]; Cellular assay): >18656 fold | IC50 ([1]; NK92, Cellular assay): 0.536 nM | IC50 [2]: 0.022 nM

CO[C@H]1C[C@H](c2cc(Nc3cc(NC(C)=O)ncc3-c3ccc4c(n3)OCC(C)(C)O4)nc(S(C)(=O)=O)c2)C1 [Example Q54]
IC50 (pSTAT5/GM-CSF): 3.98 µM | Selectivity fold (TYK2/JAK2) (pSTAT5/GM-CSF): 7116 fold | IC50 ([1]; NK92, Cellular assay): 0.56 nM | IC50 [2]: 0.037 nM

CC(=O)Nc1cc(Nc2cc(OC(C)C)cc(S(C)(=O)=O)n2)c(-c2ccc(N3CC4CC3CO4)cn2)cn1 (centres unmarked) [Example B16, N-(5-(2-oxa-5-azabicyclo[2.2.1]heptan-5-yl)-4′-((4-isopropoxy-6-(methylsulfonyl)pyridin-2-yl)amino)-[2,3′-bipyridin]-6′-yl)acetamide]
IC50 (pSTAT5/GM-CSF): 4.29 µM | Selectivity fold (TYK2/JAK2) ([1]; Cellular assay): 8366 fold | IC50 ([1]; NK92, Cellular assay): 0.513 nM | IC50 [2]: 0.03 nM

CC(=O)Nc1cc(Nc2cc(OCC3CC3)cc(S(C)(=O)=O)n2)c(-c2ccc(C(C)(C)O)cn2)cn1 [Example H30, N-(4′-((4-(cyclopropylmethoxy)-6-(methylsulfonyl)pyridin-2-yl)amino)-5-(2-hydroxypropan-2-yl)-[2,3′-bipyridin]-6′-yl)acetamide]
IC50 (pSTAT5/GM-CSF): > 10 µM | Selectivity fold (TYK2/JAK2) ([1]; Cellular assay): >10288 fold | IC50 ([1]; NK92, Cellular assay): 0.972 nM | IC50 [2]: 0.023 nM

CC(=O)Nc1cc(Nc2cc(F)cc(S(C)(=O)=O)c2)c(-c2ccn(C)n2)cn1 [Example J30, N-(4-((3-fluoro-5-(methylsulfonyl)phenyl)amino)-5-(1-methyl-1H-pyrazol-3-yl)pyridin-2-yl)acetamide]
IC50 (pSTAT5/GM-CSF): > 10 µM | Selectivity fold (TYK2/JAK2) (pSTAT5/GM-CSF): >2074 fold | IC50 ([1]; NK92, Cellular assay): 4.82 nM | IC50 [2]: 0.054 nM

CC(=O)Nc1cc(Nc2cc(C3COCCO3)cc(S(C)(=O)=O)n2)c(-c2ccc3c(n2)OCC(C)(C)O3)cn1 (racemic) [Example Q51, (S/R)—N-(4-((4-(1,4-dioxan-2-yl)-6-(methylsulfonyl)pyridin-2-yl)amino)-5-(2,2-dimethyl-2,3-dihydro-[1,4]dioxino[2,3-b]pyridin-6-yl)pyridin-2-yl)acetamide]
IC50 (pSTAT5/GM-CSF): > 10 µM | Selectivity fold (TYK2/JAK2) (pSTAT5/GM-CSF): >10214 fold | IC50 ([1]; Cellular assay): 0.979 nM | IC50 [2]: 0.034 nM

CC(=O)Nc1cc(Nc2cc(N3CCOCC3)cc(S(C)(=O)=O)n2)c(-c2ccc3c(n2)OCC(C)(C)O3)cn1 [Example Q22, N-(5-(2,2-dimethyl-2,3-dihydro-[1,4]dioxino[2,3-b]pyridin-6-yl)-4-((6-(methylsulfonyl)-4-morpholinopyridin-2-yl)amino)pyridin-2-yl)acetamide]
IC50 (pSTAT5/GM-CSF): 3.96 µM | Selectivity fold (TYK2/JAK2) (pSTAT5/GM-CSF): 6779 fold | IC50 ([1]; NK92, Cellular assay): 0.584 nM | IC50 [2]: 0.025 nM

CC(=O)Nc1cc(Nc2cccc(S(C)(=O)=O)n2)c(-c2cc(C)n(C)n2)cn1 [Example N1, N-(5-(1,5-dimethyl-1H-pyrazol-3-yl)-4-((6-(methylsulfonyl)pyridin-2-yl)amino)pyridin-2-yl)acetamide]
IC50 (pSTAT5/GM-CSF): 2.13 µM | Selectivity fold (TYK2/JAK2) (pSTAT5/GM-CSF): 8635 fold | IC50 ([1]; NK92, Cellular assay): 0.247 nM | IC50 [2]: 0.077 nM

CC(=O)Nc1cc(Nc2cc(OC[C@@H](C)O)cc(S(C)(=O)=O)n2)c(-c2ccn(C)n2)cn1 [Example J47, (R)-N-(4-((4-(2-hydroxypropoxy)-6-(methylsulfonyl)pyridin-2-yl)amino)-5-(1-methyl-1H-pyrazol-3-yl)pyridin-2-yl)acetamide]
IC50 (pSTAT5/GM-CSF): > 10 µM | Selectivity fold (TYK2/JAK2) (pSTAT5/GM-CSF): >2114 fold | IC50 ([1]; NK92, Cellular assay): 4.73 nM | IC50 [2]: 0.037 nM

CC(=O)Nc1cc(Nc2nc(S(C)(=O)=O)ccc2C)c(-c2ccc(C(C)(C)O)cn2)cn1 [Example H32, N-(5-(2-hydroxypropan-2-yl)-4′-((3-methyl-6-(methylsulfonyl)pyridin-2-yl)amino)-[2,3′-bipyridin]-6′-yl)acetamide]
IC50 (pSTAT5/GM-CSF): > 10 µM | Selectivity fold (TYK2/JAK2) ([1]; Cellular assay): >22371 fold | IC50 ([1]; NK92, Cellular assay): 0.447 nM | IC50 [2]: 0.023 nM

CC(=O)Nc1cc(Nc2cc(OCCO)cc(S(C)(=O)=O)n2)c(-c2ccc(OC3CCOC3)cn2)cn1 (centres unmarked) [Example B22, N-(4′-((4-(2-hydroxyethoxy)-6-(methylsulfonyl)pyridin-2-yl)amino)-5-((tetrahydrofuran-3-yl)oxy)-[2,3′-bipyridin]-6′-yl)acetamide]
IC50 (pSTAT5/GM-CSF): 2.49 µM | Selectivity fold (TYK2/JAK2) ([1]; Cellular assay): 197 fold | IC50 ([1]; NK92, Cellular assay): 12.6 nM | IC50 [2]: 0.025 nM

CC(=O)Nc1cc(Nc2cccc(S(N)(=O)=O)n2)c(-c2ccn(C)n2)cn1 [Example J4, N-(5-(1-methyl-1H-pyrazol-3-yl)-4-((6-sulfamoylpyridin-2-yl)amino)pyridin-2-yl)acetamide]
IC50 (pSTAT5/GM-CSF): > 10 µM | Selectivity fold (TYK2/JAK2) (pSTAT5/GM-CSF): >2024 fold | IC50 ([1]; NK92, Cellular assay): 4.94 nM | IC50 [2]: 0.028 nM

CC(=O)Nc1cc(Nc2nc(S(C)(=O)=O)ccc2C)c(-c2ccn(C)n2)cn1 [Example J27, N-(5-(1-methyl-1H-pyrazol-3-yl)-4-((3-methyl-6-(methylsulfonyl)pyridin-2-yl)amino)pyridin-2-yl)acetamide]
IC50 (pSTAT5/GM-CSF): > 10 µM | Selectivity fold (TYK2/JAK2) (pSTAT5/GM-CSF): >22779 fold | IC50 ([1]; NK92, Cellular assay): 0.439 nM | IC50 [2]: 0.04 nM

CC(=O)Nc1cc(Nc2cc(C(F)(F)F)cc(S(C)(=O)=O)c2)c(-c2ccn(C(C)C)n2)cn1 [Example M25, N-(5-(1-isopropyl-1H-pyrazol-3-yl)-4-((3-(methylsulfonyl)-5-(trifluoromethyl)phenyl)amino)pyridin-2-yl)acetamide]
IC50 (pSTAT5/GM-CSF): > 10 µM | Selectivity fold (TYK2/JAK2) (pSTAT5/GM-CSF): >659 fold | IC50 ([1]; NK92, Cellular assay): 15.2 nM | IC50 [2]: 0.096 nM

COCCOc1ccc(-c2cnc(NC(C)=O)cc2Nc2cc(C(F)(F)F)cc(S(C)(=O)=O)c2)nc1 [Example D3, N-(5-(2-methoxyethoxy)-4′-((3-(methylsulfonyl)-5-(trifluoromethyl)phenyl)amino)-[2,3′-bipyridin]-6′-yl)acetamide]
IC50 (pSTAT5/GM-CSF): > 10 µM | Selectivity fold (TYK2/JAK2) ([1]; Cellular assay): >2083 fold | IC50 ([1]; NK92, Cellular assay): 4.8 nM | IC50 [2]: 0.08 nM

CC(=O)Nc1cc(Nc2cc(OCC(O)CO)cc(S(C)(=O)=O)n2)c(-c2ccn(C)n2)cn1 (centres unmarked) [Example J48, N-(4-((4-(2,3-dihydroxypropoxy)-6-(methylsulfonyl)pyridin-2-yl)amino)-5-(1-methyl-1H-pyrazol-3-yl)pyridin-2-yl)acetamide]
IC50 (pSTAT5/GM-CSF): > 10 µM | Selectivity fold (TYK2/JAK2) (pSTAT5/GM-CSF): >1421411 fold | IC50 ([1]; NK92, Cellular assay): 70.2 nM | IC50 [2]: 0.035 nM

CCn1ccc(-c2cnc(NC(C)=O)cc2Nc2cccc(S(C)(=O)=O)c2)n1 [Example M8, N-(5-(1-ethyl-1H-pyrazol-3-yl)-4-((3-(methylsulfonyl)phenyl)amino)pyridin-2-yl)acetamide]
IC50 (pSTAT5/GM-CSF): > 10 µM | Selectivity fold (TYK2/JAK2) (pSTAT5/GM-CSF): >6097 fold | IC50 ([1]; NK92, Cellular assay): 1.64 nM | IC50 [2]: 0.04 nM

COCCOc1ccc(-c2cnc(NC(C)=O)cc2Nc2cc(OCC3CC3)cc(S(C)(=O)=O)c2)nc1 [Example D10, N-(4′-((3-(cyclopropylmethoxy)-5-(methylsulfonyl)phenyl)amino)-5-(2-methoxyethoxy)-[2,3′-bipyridin]-6′-yl)acetamide]
IC50 (pSTAT5/GM-CSF): > 10 µM | Selectivity fold (TYK2/JAK2) ([1]; Cellular assay): >789 fold | IC50 ([1]; NK92, Cellular assay): 12.7 nM | IC50 [2]: 0.052 nM

COC(C)COc1cc(Nc2cc(NC(C)=O)ncc2-c2ccn(C)n2)nc(S(C)(=O)=O)c1 (centres unmarked) [Example J13, N-(4-((4-(2-methoxypropoxy)-6-(methylsulfonyl)pyridin-2-yl)amino)-5-(1-methyl-1H-pyrazol-3-yl)pyridin-2-yl)acetamide]
IC50 (pSTAT5/GM-CSF): > 10 µM | Selectivity fold (TYK2/JAK2) (pSTAT5/GM-CSF): >8474 fold | IC50 ([1]; NK92, Cellular assay): 1.18 nM | IC50 [2]: 0.054 nM
